These results are taken from patent US11046651B2, “Piperazine substituted azapine derivatives and uses thereof” (Alairion, Inc., priority 2019, dated 2021).

In assay [1] the target is H1 (Homo sapiens (Human), UniProt P35367). In words: H1 binding assay ([3H]pyrilamine, HEK293 stable cell line membranes). How it is done: Example 25. H1 and 5-HT2A Binding Assay Protocol
(§1) The testing compounds were diluted with DMSO, starting at 2 mM, with 8-points and 5-fold serial dilutions. Ketanserin and Pyrilamine were diluted with DMSO, starting at 0.2 mM, with 8-points and 5-fold serial dilution.
(§2) 1 μl of a compounds of the present disclosure and either reference compound (Table C) were transferred to assay plates. 1 μl of 0.2 mM Ketanserin or Pyrilamine was transferred to an assay plate according to the plate map for nonspecific binding (Low control: LC). 1 μl of DMSO was transferred to an assay plate according to plate map for total binding (High control: HC).
(§3) 100 μlof membrane stocks were dispensed into the plates, following the plate map. 100 of radio ligand was added. The plates were sealed and shaken at 300 rpm at room temperature for 1 hour. The Unifilter-96 GF/C filter plates were soaked with 50 of 0.3% PEI per well for at least 0.5 hour at room temperature.
(§4) When the binding assays were complete, the reaction mixture was filtered through GF/C plates using Perkin Elmer Filtermate Harvester, and then each plate was washed 4 times with cold wash buffer. The filter plates were dried for 1 hour at 50 degrees. After drying, the bottom of the filter plate wells were sealed using Perkin Elmer Unifilter-96 backing seal tape. 50 μl of Perkin Elmer Microscint 20 cocktail was added. The top of the filter plates were sealed with Perkin Elmer TopSeal-A sealing film.
(§5) ^3H trapped on filters were counted using Perkin Elmer MicroBeta2 Reader. Inhibition constants were calculated using the following equation:
(§6) [formula] The data was analyzed using Prism 5. The model used was “log(inhibitor) vs. response—Variable slope” to fit the data and calculate IC50. The IC50 was then converted to Ki using following equation: Ki=IC50/(1+L/Kd). L is the radioligand concentration in the reaction system; Kd is the affinity of radioligand to the receptor.

Assay [2] has as its target 5-HT2A (Homo sapiens (Human), UniProt P28223). Put plainly: 5-HT2A binding assay ([3H]-Ketanserin, HEK293 stable cell line membranes). On the procedure:
H1 and 5-HT2A Binding Assay Protocol
as §1, §2, §3, §4, §5, §6

For assay [3], the target named is 5-HT2C (Homo sapiens (Human), UniProt P28335). Put plainly: 5-HT2C binding assay ([3H]-Mesulergine, HEK293 membranes). To be noted: Table L, class symbols. How it is done: 5-HT2C Binding Assay Protocol
The testing compounds were diluted with DMSO, starting at 2 mM, with 8-points and 5-fold serial dilutions.
1 μL of a compound of the present disclosure the reference compound (Table J) was transferred to an assay plate. […] 1 μL of DMSO was transferred to an assay plate according to the plate map for total binding (High control: HC).
as §4, with “Unifilter-96 GF/C filter plates were soaked with 50 μL of 0.3% PEI per well for about 0.5 hours at room temperature. When” for “When”, “through the” for “through”, “GF/C filter” for “GF/C”, “and” for “and then”, “50° C.” for “50 degrees.”, “μL” for “μl”
as §5
[formula] The data was analyzed using Prism 5. The model used was “log(inhibitor) vs. response—Variable slope” to fit the data and calculate IC50. The IC50 was then converted to Ki using the following equation: Ki=IC50/(1+L/Kd), wherein L is the radioligand concentration in the reaction system; Kd is the affinity of radioligand to the receptor.

Where only a bound is given, the exact number is not on record here.

Sequence of 5-HT2A (P28223 whole entry, species assumed): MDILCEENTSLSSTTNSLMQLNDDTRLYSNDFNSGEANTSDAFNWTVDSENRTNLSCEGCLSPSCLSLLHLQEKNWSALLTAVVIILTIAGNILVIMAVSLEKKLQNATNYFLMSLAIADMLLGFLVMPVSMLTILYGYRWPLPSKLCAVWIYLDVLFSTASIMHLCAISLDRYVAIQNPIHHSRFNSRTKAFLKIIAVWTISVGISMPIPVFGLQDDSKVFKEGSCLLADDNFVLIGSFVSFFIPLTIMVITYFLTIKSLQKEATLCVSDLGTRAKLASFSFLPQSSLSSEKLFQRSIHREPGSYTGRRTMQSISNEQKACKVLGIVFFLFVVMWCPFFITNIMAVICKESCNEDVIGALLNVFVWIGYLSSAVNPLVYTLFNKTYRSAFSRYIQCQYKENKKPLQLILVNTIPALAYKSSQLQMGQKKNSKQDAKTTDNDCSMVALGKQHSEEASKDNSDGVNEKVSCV
Sequence of H1 (P35367 whole entry): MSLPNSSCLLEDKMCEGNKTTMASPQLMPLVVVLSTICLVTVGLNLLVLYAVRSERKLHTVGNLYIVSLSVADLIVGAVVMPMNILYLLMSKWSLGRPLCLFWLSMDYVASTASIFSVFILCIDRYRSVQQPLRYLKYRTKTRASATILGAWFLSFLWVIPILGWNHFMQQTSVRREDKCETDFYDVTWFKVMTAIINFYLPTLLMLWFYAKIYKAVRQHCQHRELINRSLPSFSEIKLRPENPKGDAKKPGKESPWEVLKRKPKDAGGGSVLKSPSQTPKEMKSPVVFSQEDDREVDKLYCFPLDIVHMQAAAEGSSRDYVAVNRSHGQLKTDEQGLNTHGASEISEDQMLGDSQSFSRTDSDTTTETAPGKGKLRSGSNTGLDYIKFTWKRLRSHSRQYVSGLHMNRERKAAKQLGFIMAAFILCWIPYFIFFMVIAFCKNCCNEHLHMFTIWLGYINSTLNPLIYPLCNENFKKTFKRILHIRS
Sequence of 5-HT2C (P28335 33-458): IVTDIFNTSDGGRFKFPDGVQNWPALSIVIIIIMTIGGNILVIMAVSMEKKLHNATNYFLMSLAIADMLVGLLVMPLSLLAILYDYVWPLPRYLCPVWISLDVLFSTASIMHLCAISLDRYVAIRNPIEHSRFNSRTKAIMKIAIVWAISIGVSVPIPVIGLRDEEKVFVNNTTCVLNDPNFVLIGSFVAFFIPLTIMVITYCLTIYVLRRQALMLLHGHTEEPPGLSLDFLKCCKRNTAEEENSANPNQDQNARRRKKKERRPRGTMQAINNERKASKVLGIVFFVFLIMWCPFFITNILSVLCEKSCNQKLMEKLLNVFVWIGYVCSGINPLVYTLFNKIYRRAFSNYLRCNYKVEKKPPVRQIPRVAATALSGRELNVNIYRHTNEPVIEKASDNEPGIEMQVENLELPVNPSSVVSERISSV

The term Ki denotes a dissociation constant, usually derived from enzyme kinetics or from competition with a known ligand. As for `CC(CN1CCN(C2=Nc3ccccc3Cc3ccccc32)CC1)C(=O)O` (stereo not shown) [A-1, 3-(4-(11H-dibenzo[b,e]azepin-6-yl)piperazin-1-yl)-2-methylpropanoic acid, reference compound], the results for the Ki in assay [1] (numeric values) and in assay [2] (numeric values) were 104 nM and 1380 nM, respectively.
In the case of `Cc1ccc2c(c1)Oc1cc(Cl)ccc1N=C2N1CCN(CC(C)(C)C(=O)O)CC1` [Compound No. 1, 3-(4-(7-chloro-3-methyldibenzo[b,f][1,4]oxazepin-11-yl)piperazin-1-yl)-2,2-dimethylpropanoic acid], the inhibitory constant (Ki) in assay [1] (Table E, class symbols) is 1 to 25 nM; in assay [2] (Table F, class symbols), 1 to 25 nM; in assay [3], above 500 nM.
On to `CC(C)c1ccc2c(c1)Oc1cc(Cl)ccc1N=C2N1CCN(CC(C)(C)C(=O)O)CC1` [Compound No. 2, 3-(4-(7-chloro-3-isopropyldibenzo[b,f][1,4]oxazepin-11-yl)piperazin-1-yl)-2,2-dimethylpropanoic acid], for which the inhibitory constant (Ki) in assay [1] (Table E, class symbols) lay within 25 to 50 nM; in assay [2] (Table F, class symbols) it was 1 to 25 nM.
For the compound `CCc1ccc2c(c1)Oc1cc(Cl)ccc1N=C2N1CCN(CC(C)(C)C(=O)O)CC1` [Compound No. 3, 3-(4-(7-chloro-3-ethyldibenzo[b,f][1,4]oxazepin-11-yl)piperazin-1-yl)-2,2-dimethylpropanoic acid], the inhibition constant (Ki) in assay [1] (Table E, class symbols) is 25 to 50 nM; in assay [2] (Table F, class symbols), 1 to 25 nM.
The like results for `CSc1ccc2c(c1)Oc1cc(Cl)ccc1N=C2N1CCN(CC(C)(C)C(=O)O)CC1` [Compound No. 4, 3-(4-(7-chloro-3-(methylthio)dibenzo[b,f][1,4]oxazepin-11-yl)piperazin-1-yl)-2,2-dimethylpropanoic acid] were, in that order, 1 to 25 nM and 1 to 25 nM.
`CCCc1ccc2c(c1)Oc1cc(Cl)ccc1N=C2N1CCN(CC(C)(C)C(=O)O)CC1` [Compound No. 5, 3-(4-(7-chloro-3-propyldibenzo[b,f][1,4]oxazepin-11-yl)piperazin-1-yl)-2,2-dimethylpropanoic acid]: the Ki in assay [1] (Table E, class symbols) lay within 25 to 50 nM; in assay [2] (Table F, class symbols) it was 1 to 25 nM.
In the case of `Cc1ccc2c(c1)Oc1cc(C)ccc1C(N1CCN(CC3(C(=O)O)CC3)CC1)=N2` [Compound No. 9, 1-((4-(3,7-dimethyldibenzo[b,f][1,4]oxazepin-11-yl)piperazin-1-yl)methyl)cyclopropane-1-carboxylic acid], the Ki was above 50 nM in assay [1] (Table E, class symbols) and 1 to 25 nM in assay [2] (Table F, class symbols).
On to `O=C(O)C1(CN2CCN(C3=Nc4ccc(F)cc4Oc4cc(F)ccc43)CC2)CC1` [Compound No. 10, 1-((4-(3,7-difluorodibenzo[b,f][1,4]oxazepin-11-yl)piperazin-1-yl)methyl)cyclopropane-1-carboxylic acid], for which the inhibition constant (Ki) fell in the range of 1 to 25 nM in assay [1] (Table E, class symbols) and 1 to 25 nM in assay [2] (Table F, class symbols).
On to `CC(C)(CN1CCN(C2=Nc3ccc(F)cc3Oc3cc(F)ccc32)CC1)C(=O)O` [Compound No. 11, 3-(4-(3,7-difluorodibenzo[b,f][1,4]oxazepin-11-yl)piperazin-1-yl)-2,2-dimethylpropanoic acid], for which the Ki in assay [1] (Table E, class symbols) is above 50 nM; in assay [2] (Table F, class symbols) it was 1 to 25 nM.
Take `O=C(O)C1(CN2CCN(C3=Nc4ccccc4Cc4ccccc43)CC2)CC1` [Compound No. 12, 1-((4-(11H-dibenzo[b,e]azepin-6-yl)piperazin-1-yl)methyl)cyclopropane-1-carboxylic acid]: the Ki in assay [1] (Table E, class symbols) is 1 to 25 nM; in assay [2] (Table F, class symbols), above 50 nM.
On to `Cc1ccc2c(c1)Oc1cc(Cl)ccc1N=C2N1CCN(CC2(C(=O)O)CC2)CC1` [Compound No. 13, 1-((4-(7-chloro-3-methyldibenzo[b,f][1,4]oxazepin-11-yl)piperazin-1-yl)methyl)cyclopropane-1-carboxylic acid], for which the Ki lay in the range of 25 to 50 nM in assay [1] (Table E, class symbols) and 1 to 25 nM in assay [2] (Table F, class symbols).
`CCc1ccc2c(c1)Oc1cc(C)ccc1N=C2N1CCN(CC2(C(=O)O)CC2)CC1` [Compound No. 14, 1-((4-(3-ethyl-7-methyldibenzo[b,f][1,4]oxazepin-11-yl)piperazin-1-yl)methyl)cyclopropane-1-carboxylic acid]: the Ki in assay [1] (Table E, class symbols) is above 50 nM; in assay [2] (Table F, class symbols) it was 1 to 25 nM.
On to `Cc1ccc2c(c1)Oc1cc(C(F)F)ccc1N=C2N1CCN(CC(C)(C)C(=O)O)CC1` [Compound No. 16, 3-(4-(7-(difluoromethyl)-3-methyldibenzo[b,f][1,4]oxazepin-11-yl)piperazin-1-yl)-2,2-dimethylpropanoic acid], for which the Ki in assay [1] (Table E, class symbols) is above 50 nM; in assay [2] (Table F, class symbols), above 50 nM.
Consider `Cc1ccc2c(c1)Oc1cc(F)ccc1C(N1CCN(CC(C)(C)C(=O)O)CC1)=N2` [Compound No. 17, 3-(4-(3-fluoro-7-methyldibenzo[b,f][1,4]oxazepin-11-yl)piperazin-1-yl)-2,2-dimethylpropanoic acid], for which the Ki in assay [1] (Table E, class symbols) fell in the range of 1 to 25 nM; in assay [2] (Table F, class symbols) it was 1 to 25 nM.
Regarding `Cc1ccc2c(c1)Oc1cc(F)ccc1N=C2N1CCN(CC2(C(=O)O)CC2)CC1` [Compound No. 18, 1-((4-(7-fluoro-3-methyldibenzo[b,f][1,4]oxazepin-11-yl)piperazin-1-yl)methyl)cyclopropane-1-carboxylic acid], the Ki in assay [1] (Table E, class symbols) was in the range of 1 to 25 nM; in assay [2] (Table F, class symbols), 25 to 50 nM.
In the case of `Cc1ccc2c(c1)Oc1cc(F)ccc1C(N1CCN(CC3(C(=O)O)CC3)CC1)=N2` [Compound No. 19, 1-((4-(3-fluoro-7-methyldibenzo[b,f][1,4]oxazepin-11-yl)piperazin-1-yl)methyl)cyclopropane-1-carboxylic acid], the inhibition constant (Ki) in assay [1] (Table E, class symbols) fell in the range of 25 to 50 nM; in assay [2] (Table F, class symbols), 1 to 25 nM.
For `COc1ccc2c(c1)Oc1cc(Cl)ccc1N=C2N1CCN(CC(C)(C)C(=O)O)CC1` [Compound No. 20, 3-(4-(7-chloro-3-methoxydibenzo[b,f][1,4]oxazepin-11-yl)piperazin-1-yl)-2,2-dimethylpropanoic acid], the Ki in assay [1] (Table E, class symbols) was above 50 nM; in assay [2] (Table F, class symbols), 25 to 50 nM.
For `COc1ccc2c(c1)Oc1cc(F)ccc1N=C2N1CCN(CC(C)(C)C(=O)O)CC1` [Compound No. 21, 3-(4-(7-fluoro-3-methoxydibenzo[b,f][1,4]oxazepin-11-yl)piperazin-1-yl)-2,2-dimethylpropanoic acid] the same measures were above 50 nM and 25 to 50 nM.
Regarding `Cc1ccc2c(c1)Oc1ccc(F)cc1N=C2N1CCN(CC(C)(C)C(=O)O)CC1` [compound 28, 3-(4-(8-fluoro-3-methyldibenzo[b,f][1,4]oxazepin-11-yl)piperazin-1-yl)-2,2-dimethylpropanoic acid], the Ki in assay [3] fell in the range of 100 to 500 nM.
In the case of `Cc1ccc2c(c1)Oc1ccc(Cl)cc1N=C2N1CCN(CC(C)(C)C(=O)O)CC1` [compound 29, 3-(4-(8-chloro-3-methyldibenzo[b,f][1,4]oxazepin-11-yl)piperazin-1-yl)-2,2-dimethylpropanoic acid], the Ki in assay [3] was below 100 nM.
In assay [3], `CC(C)(CN1CCN(C2=Nc3cc(F)ccc3Oc3cc(F)ccc32)CC1)C(=O)O` [compound 31, 3-(4-(3,8-difluorodibenzo[b,f][1,4]oxazepin-11-yl)piperazin-1-yl)-2,2-dimethylpropanoic acid] yielded an inhibitory constant (Ki) below 100 nM.
Compound `Cc1ccc2c(c1)N=C(N1CCN(CC(C)(C)C(=O)O)CC1)c1ccc(C(F)F)cc1O2` [compound 33, 3-(4-(3-(difluoromethyl)-8-methyldibenzo[b,f][1,4]oxazepin-11-yl)piperazin-1-yl)-2,2-dimethylpropanoic acid] displayed a Ki in assay [3] below 100 nM.
Take `Cc1ccc2c(c1)C(N1CCN(CC(C)(C)C(=O)O)CC1)=Nc1cc(Cl)ccc1O2` [compound 34, 3-(4-(8-chloro-2-methyldibenzo[b,f][1,4]oxazepin-11-yl)piperazin-1-yl)-2,2-dimethylpropanoic acid]: in assay [3], the inhibitory constant (Ki) was below 100 nM.
Turning to `COc1ccc2c(c1)C(N1CCN(CC(C)(C)C(=O)O)CC1)=Nc1cc(Cl)ccc1O2` [compound 35, 3-(4-(8-chloro-2-methoxydibenzo[b,f][1,4]oxazepin-11-yl)piperazin-1-yl)-2,2-dimethylpropanoic acid], in assay [3], the inhibition constant (Ki) was 100 to 500 nM.
